{"source": "patent US20200368234A1", "about": "“PHOTORECEPTOR GENE MODULATOR PHOTOREGULIN 3 FOR TREATMENT OF RETINAL DISEASE” (University of Washington, priority 2017, published 2020)", "key": {"[1]": {"tested_on": "Rho^P23H mice", "assay": "ERG visual function in Rho^P23H mice at P21", "assay_type": "in vivo, mouse", "details": "10 mg/kg PR3, vs littermate DMSO controls", "protocol": "FIG. 4A compares scotopic b-wave amplitudes from P21 Rhodopsin^P23H mice treated with 10 mg/kg PR3 or DMSO vehicle (n=4-8, *p<0.05, t-test).\nFIG. 4D compares photopic b-wave amplitudes from P21 Rhodopsin^P23H mice treated with 10 mg/kg PR3 or DMSO vehicle (n=4-8, *p<0.05, t-test).\nTo determine whether photoreceptor degeneration can be prevented, Rho^P23H mice were treated with PR3 or vehicle from P12-P14 until P21, during the period of rod photoreceptor death (FIG. 3A). At P21, visual function was assessed with ERGs and euthanized the mice for histological and qPCR analyses. At P21, control Rho^P23H mice had only 2-3 rows of photoreceptors remaining in their ONL (FIGS. 3B and 3C). Rods were sparse and there were few remaining cones (S Opsin+ and Cone Arrestin+ photoreceptors). Control Rho^P23H mice had minimal scotopic and photopic b-wave amplitudes by ERG analysis (FIGS. 4A, 4B, 4D, and 4E). […] The surviving cones in the PR3-treated retinas were more elongated and healthier than in the DMSO control retinas.\nPhotoregulin3 was identified by searching previous small molecule screens with SciFinder and PubChem for Nr2e3 interacting molecules. It was initially obtained from ChemDiv and then synthesized and purified in large quantities in the lab after initial screening. For in vivo experiments, mice were injected intraperitoneally with PR3 dissolved in DMSO at 10 mg/kg. […]"}, "[2]": {"tested_on": "S Opsin+ cells in the ventral retina", "assay": "S Opsin+ cell count in intact retinal explant cultures", "assay_type": "cell-based", "details": "P11 mouse intact retina explants, 0.3 μM PR3, 3 DIV, vs DMSO", "source_text": "Scale bar represents 50 μm. E. PR3-treated retinas had more S Opsin+ cells per 100 μm×100 μm field in the ventral retina compared to DMSO-treated retinas (n=3, *p<0.05, Student's t-test).\nFIG. 1E is a graph quantifying the effects of PR3 on S-opsin expression; treatment conditions were the same as those in FIG. 1D. S-opsin+ cones are predominantly present in the ventral retina of mice.\nMutations in Nr2e3 result in an increased number of S Opsin+ photoreceptors as well as a reduction in rod gene expression. To determine if PR3 treatment also affects cone gene expression, intact retinas were explanted from P11 wild type mice in media containing DMSO or PR3 for 3 days. Intact retinas were used for this experiment to assess changes in dorsal and ventral retina independently. After fixation and whole mount immunostaining, S Opsin+ cells were counted in the ventral retina.\nIntact retinas without RPE from P11 C57Bl/6 mice were explanted on 0.4 μm pore tissue culture inserts in media (Neurobasal-A containing 1% FBS, 1% N2, 1% B27, 1% Pen/Strep, and 0.5% L-Glutamine) containing DMSO or 0.3 μM Photoregulin3. Full media changes were performed every other day. […] Cells were counted from single plane confocal images taken at fixed settings."}, "[3]": {"target": "T1, Nr2e3 (Homo sapiens, UniProt Q9Y5X4)", "T1 construct": "Nr2e3 protein (aa 90-410) was expressed; His8 (N, cleaved yes); MBP (N, cleaved yes); host or cells: E. coli BL21 (DE3)", "T1 sequence (Q9Y5X4 90-410)": "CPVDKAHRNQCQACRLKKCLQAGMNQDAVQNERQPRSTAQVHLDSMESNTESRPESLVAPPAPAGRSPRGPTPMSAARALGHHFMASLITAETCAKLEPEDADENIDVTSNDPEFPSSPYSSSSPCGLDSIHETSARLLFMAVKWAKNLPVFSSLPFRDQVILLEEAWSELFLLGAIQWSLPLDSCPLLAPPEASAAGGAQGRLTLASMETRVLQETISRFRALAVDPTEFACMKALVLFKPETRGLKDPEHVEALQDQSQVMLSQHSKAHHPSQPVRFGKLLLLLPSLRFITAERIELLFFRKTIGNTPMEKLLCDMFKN", "assay": "Isothermal titration calorimetry (ITC) of PR3 binding to Nr2e3", "details": "one site model, estimated", "protocol": "FIG. 1F illustrates an isothermal titration calorimetric (ITC) study of PR3 binding to Nr2e3. Nr2e3 protein was expressed as a fusion protein from the expression vector pVP16. The fusion protein was incubated with TEV overnight at 4° C. and then the His8-MBP tags were separated from Nr2e3 by ion exchange chromatography. For isothermal titration calorimetry, […] was injected into […] in a MicroCal ITC-200 (Malvern).\nTo confirm a direct Nr2e3-PR3 interaction, isothermal titration calorimetry (ITC) was used.\nNr2e3 protein (aa 90-410) was expressed as a His8-MBP-TEV fusion protein from the expression vector pVP16 (DNASU Plasmid ID: HsCD00084154). E. coli BL21 (DE3) cells were grown to an OD600 of 1, and then induced with 0.2 mM IPTG at 16° C. overnight. Cells were harvested, resuspended in extract buffer (20 mM Tris pH 8, 200 mM NaCl, 10% glycerol, 5 mM 2-mercaptoethanol, and saturated PMSF diluted 1:1,000), and then lysed by sonication on ice. Lysates were centrifuged at 4° C. and the supernatant was loaded onto an equilibrated column containing 5 mL of Ni-NTA agarose (Qiagen). […] For isothermal titration calorimetry, 100 μM PR3 was injected into 20 μM Nr2e3 in 10 mM sodium phosphate buffer pH 8 with 50 mM NaCl and 0.5% DMSO in a MicroCal ITC-200 (Malvern) and the data was analyzed with Origin 7.0 software."}}, "note": "“Also recorded” adds a separate entry of the source."}
{"smiles": "COc1cc2nc(CN3CC=C(c4ccccc4)CC3)nc(O)c2cc1OC", "note": "[PR3]", "values": [{"measurement": "photopic b-wave amplitudes (ERG)", "setting": "[1]", "result": "significantly elevated"}, {"measurement": "scotopic b-wave amplitudes (ERG)", "setting": "[1]", "result": "significantly elevated"}, {"measurement": "S Opsin+ cells per 100 μm×100 μm field in the ventral retina", "setting": "[2]", "result": "significantly more S Opsin+ cells per 100 μm×100 μm field in the ventral retina compared to DMSO-treated retinas; also recorded: increase in the number S Opsin+ cells in the ventral retina"}, {"measurement": "Kd", "setting": "[3]", "result": "~67", "unit": "µM"}]}
